Source: patent US20220324835A1 (Nurix Therapeutics, Inc., priority 2018, published 2022)

Legend:
T-cell [1] = test: CD25 cell surface staining on T-cells co-stimulated with anti-CD3 and anti-CD28 antibody (Biological Example 2); assay type: cell-based, human; settings: Homo sapiens, T-cell, primary human total T-cells, baseline = anti-CD3/anti-CD28 stimulated cells without inhibitor, read-out: CD25 staining, Anti-CD3/Anti-CD28 stimulation, fold change over baseline; for fold induction at 0.3 µM: 0.3 μM compound; for fold induction at 1 µM: 1 μM compound; for fold induction at 4 µM: 4 μM compound
Summary of the method: (§1)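 No assay protocol given; T-cells stimulated with anti-CD3 alone or anti-CD3 plus anti-CD28, with or without Cbl-b inhibitor. Activation read as IL-2 secretion or CD25 surface staining, expressed as fold over baseline from uninhibited cells […].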

T-cell [2] = test: IL-2 secretion from T-cells stimulated with anti-CD3 antibody alone (Biological Example 2); assay type: cell-based; settings: primary human total T-cells, read-out: IL-2 secretion, Anti-CD3 stimulation, fold change over baseline; for fold induction at 1 µM: 1 μM compound; for fold induction at 8 µM: 8 μM compound
T-cell [3] = test: CD25 cell surface staining on T-cells stimulated with anti-CD3 antibody alone (Biological Example 2); assay type: cell-based; settings: primary human total T-cells, baseline = anti-CD3/anti-CD28 stimulated cells without inhibitor, read-out: CD25 staining, Anti-CD3 stimulation, fold change over baseline; for fold induction at 1 µM: 1 μM compound; for fold induction at 8 µM: 8 μM compound
T-cell [4] = test: IL-2 secretion from T-cells co-stimulated with anti-CD3 and anti-CD28 antibody (Biological Example 2); assay type: cell-based, human; settings: Homo sapiens, T-cell, primary human total T-cells, baseline = anti-CD3/anti-CD28 stimulated cells without inhibitor, read-out: IL-2 secretion, Anti-CD3/Anti-CD28 stimulation, fold change over baseline; for fold induction at 0.3 µM: 0.3 μM compound; for fold induction at 1 µM: 1 μM compound; for fold induction at 4 µM: 4 μM compound
Summary of the method: as §1

Cbl-b [5] = molecular target: T1, Cbl-b (Homo sapiens, UniProt Q13191); test: Cbl-b activity assay (Cbl-b inhibition assay), TR-FRET of Cbl-b interaction with UbcH5B-Ub; assay type: biochemical; settings: assay buffer with 100 mM NaCl, 60 nM Src kinase; read-out: Cbl-b activity IC50
T1 sequence (Q13191 36-427): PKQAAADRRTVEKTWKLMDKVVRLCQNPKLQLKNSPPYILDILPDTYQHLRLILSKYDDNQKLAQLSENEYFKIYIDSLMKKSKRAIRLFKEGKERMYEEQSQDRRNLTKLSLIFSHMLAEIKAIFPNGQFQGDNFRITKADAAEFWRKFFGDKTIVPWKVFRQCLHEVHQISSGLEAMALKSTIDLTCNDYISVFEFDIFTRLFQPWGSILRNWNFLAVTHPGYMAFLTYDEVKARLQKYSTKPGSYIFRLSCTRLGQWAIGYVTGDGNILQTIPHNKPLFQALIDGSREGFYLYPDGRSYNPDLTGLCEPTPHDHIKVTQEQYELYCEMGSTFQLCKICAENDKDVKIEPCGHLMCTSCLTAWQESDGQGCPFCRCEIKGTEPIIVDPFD
Summary of the method: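 TR-FRET readout of Cbl-b binding to Bodipy-fluorescein N-terminally labeled Ub conjugated to UbcH5B C85K, measured with compound present. After compound incubation, 60 nM Src kinase with 1 mM ATP and 5 mM MgCl2 (final) was added for 1.5 h, then a further 1 h incubation; asterisked values used 50 mM NaCl buffer and 30 nM Src.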

Cbl-b [6] = molecular target: T1, Cbl-b; test: Cbl-b inhibition assay (Cbl-b activity assay, FRET, Biological Example 1; 100 mM NaCl, 60 nM Src kinase); assay type: biochemical; settings: upper bound stated in text lists; read-out: IC50 values in the Cbl-b inhibition assay of Biological Example 1
Summary of the method: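 Inhibition is read as loss of FRET signal. The signal arises when Src-phosphorylated, N-terminal biotinylated Avi-Cbl-b (captured by streptavidin-terbium) binds UbcH5B carrying covalently linked Bodipy-Fluorescein-tagged ubiquitin.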

SMILES	fold induction at 0.3 µM (T-cell [1])	fold induction at 1 µM (T-cell [1])	fold induction at 1 µM (T-cell [2])	fold induction at 1 µM (T-cell [3])	fold induction at 0.3 µM (T-cell [4])	fold induction at 1 µM (T-cell [4])	IC50 (Cbl-b [5]) [nM]	IC50 (Cbl-b [6]) [nM]	fold induction at 4 µM (T-cell [1])	fold induction at 8 µM (T-cell [2])	fold induction at 8 µM (T-cell [3])	fold induction at 4 µM (T-cell [4])
C[C@H]1CN(C)CCN1c1cc2c(c(C(F)(F)F)c1)CN(c1cccc(C3(Cc4nncn4C)COC3)c1)C2=O [Compound 389, (S)-6-(2,4-Dimethylpiperazin-1-yl)-2-(3-(3-((4-methyl-4H-1,2,4-triazol-3-yl)methyl)oxetan-3-yl)phenyl)-4-(trifluoromethyl)isoindolin-1-one]	1.01 to 1.3	1.31 to 1.5	> 0.201	> 1	5 to 7.5	> 7.5	< 100	≤ 100	–	–	–	–
C[C@@H](c1cc2c(c(C(F)(F)F)c1)CN(c1cccc(C3(Cc4nncn4C)COC3)c1)C2=O)N1CCC(F)(F)C1 [Compound 420, (S)-6-(1-(3,3-difluoropyrrolidin-1-yl)ethyl)-2-(3-(3-((4-methyl-4H-1,2,4-triazol-3-yl)methyl)oxetan-3-yl)phenyl)-4-(trifluoromethyl)isoindolin-1-one]	1.31 to 1.5	1.31 to 1.5	0.151 to 0.2	> 1	2.51 to 5	> 7.5	< 100	≤ 100	1.31 to 1.5	> 0.201	> 1	> 7.5
C[C@H](c1cc2c(c(C(F)(F)F)c1)CN(c1cccc(C3([C@@H](F)c4nncn4C)COC3)c1)C2=O)N1CCC2(CC2)C1 (stereo in doubt) [Compound 515, 6-[(1R)-1-{5-azaspiro[2.4]heptan-5-yl}ethyl]-2-(3-{3-[(R)-fluoro(4-methyl-1,2,4-triazol-3-yl)methyl]oxetan-3-yl}phenyl)-4-(trifluoromethyl)-3H-isoindol-1-one]	> 1.76	> 1.76	> 0.201	> 1	> 7.5	> 7.5	< 100	≤ 100	–	–	–	–
Cn1cnnc1CC1(c2cccc(N3Cc4c(cccc4C(F)(F)F)C3=O)c2)CC(F)(F)C1 [Compound 527, 2-(3-(3,3-difluoro-1-((4-methyl-4H-1,2,4-triazol-3-yl)methyl)cyclobutyl)-phenyl)-4-(trifluoromethyl)isoindolin-1-one]	1.01 to 1.3	1.01 to 1.3	> 0.201	> 1	2.51 to 5	5 to 7.5	< 100	≤ 100	–	–	–	–
CN1CCC(=O)C(Cc2cc3c(c(C(F)(F)F)c2)CN(c2cccc(C4(Cc5nncn5C)COC4)c2)C3=O)C1 (stereo not drawn) [Compound 531, 6-((l-methyl-4-oxopiperidin-3-yl)methyl)-2-(3-(3-((4-methyl-4H-1,2,4-triazol-3-yl)methyl)oxetan-3-yl)phenyl)-4-(trifluoromethyl)isoindolin-1-one]	1.01 to 1.3	1.01 to 1.3	> 0.201	> 1	> 7.5	> 7.5	< 100	≤ 100	–	–	–	–
Cn1cnnc1CC1(c2cccc(NC(=O)c3cc(CN4CC[C@H](O)C4)nc(C4CC4)n3)c2)COC1 [Compound 505, 2-cyclopropyl-6-{[(3S)-3-hydroxypyrrolidin-1-yl]methyl}-N-(3-{3-[(4-methyl-1,2,4-triazol-3-yl)methyl]oxetan-3-yl}phenyl)pyrimidine-4-carboxamide]	1.01 to 1.3	1.01 to 1.3	0.051 to 0.1	0.601 to 0.8	1.01 to 2.5	2.51 to 5	< 100	≤ 100	–	–	–	–
Cn1cnnc1CC1(c2cccc(N3Cc4c(cc(CN5CC(F)C5(C)C)cc4C(F)(F)F)C3=O)c2)COC1 (centres unmarked) [Compound 536, 6-((3-fluoro-2,2-dimethylazetidin-1-yl)methyl)-2-(3-(3-((4-methyl-4H-1,2,4-triazol-3-yl)methyl)oxetan-3-yl)phenyl)-4-(trifluoromethyl)isoindolin-1-one]	1.31 to 1.5	1.31 to 1.5	0.101 to 0.15	> 1	2.51 to 5	5 to 7.5	< 100	≤ 100	–	–	–	–
Cn1cnnc1CC1(c2cccc(NC(=O)c3cc(CN4CCC4)nc(C4CC4)n3)c2)COC1 [Compound 504, 6-(azetidin-1-ylmethyl)-2-cyclopropyl-N-(3-{3-[(4-methyl-1,2,4-triazol-3-yl)methyl]oxetan-3-yl}phenyl)pyrimidine-4-carboxamide]	1.01 to 1.3	1.31 to 1.5	0.051 to 0.1	0.801 to 1	2.51 to 5	5 to 7.5	< 100	≤ 100	–	–	–	–
Cn1cnnc1CC1(c2cccc(N3Cc4c(cc(CN5CC(C(=O)O)C5)cc4C(F)(F)F)C3=O)c2)COC1 [Compound 428]	1.01 to 1.3	1.01 to 1.3	0.151 to 0.2	0.801 to 1	1.01 to 2.5	1.01 to 2.5	< 100	≤ 100	1.01 to 1.3	> 0.201	> 1	1.01 to 2.5
Cn1cnnc1CC1(c2cccc(NC(=O)c3csc(C(F)(F)F)n3)c2)COC1 [Compound 492, N-(3-{3-[(4-methyl-1,2,4-triazol-3-yl)methyl]oxetan-3-yl}phenyl)-2-(trifluoromethyl)-1,3-thiazole-4-carboxamide]	1.01 to 1.3	1.01 to 1.3	0.051 to 0.1	0.601 to 0.8	1.01 to 2.5	1.01 to 2.5	< 100	≤ 100	–	–	–	–
CN(c1cc2c(c(C(F)(F)F)c1)CN(c1cccc([C@@](C)(F)C(F)(F)c3nncn3C)c1)C2=O)[C@H]1CNC[C@H]1F [Example 549, 6-(((3S,4R)-4-fluoropyrrolidin-3-yl)(methyl)amino)-2-(3-((R)-1,1,2-trifluoro-1-(4-methyl-4H-1,2,4-triazol-3-yl)propan-2-yl)phenyl)-4-(trifluoromethyl)iso-indolin-1-one]	1.01 to 1.3	1.31 to 1.5	0.151 to 0.2	0.801 to 1	1.01 to 2.5	2.51 to 5	100 to 300	≤ 300	–	–	–	–
Cn1cnnc1CC1(c2cccc(N3Cc4c(cc(CN5CC(C#N)C5)cc4C(F)(F)F)C3=O)c2)COC1 [Compound 423, 1-((2-(3-(3-((4-methyl-4H-1,2,4-triazol-3-yl)methyl)oxetan-3-yl)phenyl)-3-oxo-7-(trifluoromethyl)isoindolin-5-yl)methyl)azetidine-3-carbonitrile]	1.01 to 1.3	1.01 to 1.3	0.151 to 0.2	0.801 to 1	2.51 to 5	5 to 7.5	< 100	≤ 100	1.31 to 1.5	> 0.201	> 1	> 7.5
Cn1cnnc1-c1cnn(C)c1-c1cccc(N2Cc3c(cccc3C(F)(F)F)C2=O)c1 [Compound 523, 2-(3-(l-methyl-4-(4-methyl-4H-1,2,4-triazol-3-yl)-1H-pyrazol-5-yl)phenyl)-4-(trifluoromethyl)isoindolin-1-one]	1.01 to 1.3	1.01 to 1.3	0.051 to 0.1	0.601 to 0.8	1.01 to 2.5	1.01 to 2.5	100 to 300	≤ 300	–	–	–	–
